Results from article PMC10844532, “The in vivo study on antioxidant activity of wendan decoction in treating hyperlipidemia: a pharmacokinetic-pharmacodynamic (PK-PD) model” (Frontiers in Pharmacology, 2024).
Read-outs that look alike come from different tables or passages of the source.

How the values were obtained:
[1] = Plasma pharmacokinetics of 10 WDD components after gavage of WDD (LC-MS/MS, Phoenix NCA and compartment model); assay type: in vivo, SD rats; parameters: Tmax: unit: h; settings: for AUC(0-t) / Cmax / half-life / Tmax / t1/2: hyperlipidemia rat plasma, non-compartment, n = 6; for Model (optimal PK compartment model): chosen by AIC, Phoenix Model module, rats given WDD
Experimental: LPO values of all the rats were assessed prior to therapy, and utilized as the baseline. […] Thermo Scientific Hypersil C18 analytical column (particle size: 1.9 µm, length: 100 mm, and diameter: 2.1 mm) was employed. Column operational conditions were like so, column temperature: 30°C, autosampler temperature: 4°C, whereas the flow rate: 0.3 mL/min. Injection volume: 3 μL, and mobile phase: aqueous solution containing 0.1% formic acid aqueous solution (A) and acetonitrile (B). […] Electrospray ion source (ESI) was used for mass spectrometry detection and analysis, both in positive and negative ion patterns. Nitrogen was kept as both of the auxiliary and sheath gas. The capillary temperature was 345°C, the atomizer temperature was 350°C, and the electrospray voltage was 3800 V. The mass spectrometry data for the 10 compounds and the internal standard (IS) are shown in Table 1. After accurately measuring 100 μL of plasma, 10 μL of the QC solution or the IS solution was supplemented, and the blend was vortexed for 30 s. Afterward, 300 μL of acetonitrile (as protein precipitant) was added, vortexed for 1 min, and then centrifuged (10 min at 12000 r/min). Finally, the supernatant was taken and stored for testing. […] The dose, plasma concentration and time after administration were imported into the NCA (Noncompartmental Analysis) module of Phoenix 8.1 to obtain the pharmacokinetic parameters. The Phoenix Model module of Phoenix software was used to establish the atrioventricular model of the drug. Akaike Information Criterion (AIC) rules were used to calculate the optimal PK model.

[2] = test system: hyperlipidemia mice; parameters: method as in Yu et al., 2022; settings: hyperlipidemia mice ref Yu et al., 2022; cited from earlier work
[3] = test system: hyperlipidemia hamsters; parameters: method as in Shi et al., 2023; settings: compared with the control group ref Shi et al., 2023; cited from earlier work
[4] = test system: plasma lipids; parameters: method as in Sahebkar, 2017; settings: randomized controlled trials ref Sahebkar, 2017, cited from earlier work
[5] = test system: experimental hyperlipidemia rat models; parameters: method as in Kumar et al., 2020; settings: experimental hyperlipidemia rat models ref Kumar et al., 2020; cited from earlier work
[6] = test system: HDL; parameters: method as in Eu et al., 2010; settings: ref Eu et al., 2010; cited from earlier work
[7] = Sprague-Dawley, po, HTG: WDD 6.6 g/100 g by gavage
[8] = Sprague-Dawley, po, LTG: WDD 2.2 g/100 g by gavage
[9] = Sprague-Dawley, rat, plasma, po, 2.2 g/100 g, LTG: WDD 2.2 g/100 g by gavage
[10] = Sprague-Dawley, rat, plasma, po, 2.2 g/100 g, LTG: WDD 2.2 g/100 g by gavage, read-out: Tmax
[11] = Sprague-Dawley, rat, plasma, po, 6.6 g/100 g, HTG: WDD 6.6 g/100 g by gavage
[12] = Sprague-Dawley, rat, plasma, po, 6.6 g/100 g, HTG: WDD 6.6 g/100 g by gavage, read-out: Tmax

| AUC(0-t) [1, 7] | Cmax [1, 7] | AUC(0-t) [1, 8] | Cmax [1, 8] | half-life [1, 9] | Tmax [1, 10] | half-life [1, 11] | Tmax [1, 12] | Model (optimal PK compartment model) [1] | SMILES | other results |
| --- | --- | --- | --- | --- | --- | --- | --- | --- | --- | --- |
| 10.2 ± 0.298 µg·h/mL | 3.28 ± 0.475 µg/mL | 8.18 ± 0.5 µg·h/mL | 2.94 ± 0.22 µg/mL | 2.3 ± 0.16 h | 0.75 h | 6.02 ± 0.92 h | 0.54 ± 0.21 h |  | CC1(C)[C@@H](O)CC[C@]2(C)[C@H]3C(=O)C=C4[C@@H]5C[C@@](C)(C(=O)O)CC[C@]5(C)CC[C@@]4(C)[C@]3(C)CC[C@@H]12 [Glycyrrhetinic acid] | bioavailability (from largest AUC in rat plasma) ([1]; both doses of WDD): good bioavailability |
| 0.713 ± 0.0464 µg·h/mL | 0.575 ± 0.0175 µg/mL | 0.21 ± 0.0125 µg·h/mL | 0.0368 ± 0.00499 µg/mL | 6.13 ± 0.94 h | 0.54 ± 0.21 h | 5 ± 1.27 h | 0.25 h | Two-Compartment Model | C[C@@H]1O[C@@H](O[C@H]2[C@H](Oc3cc(O)c4c(c3)O[C@H](c3ccc(O)cc3)CC4=O)O[C@H](CO)[C@@H](O)[C@@H]2O)[C@H](O)[C@H](O)[C@H]1O [Naringin] | effect on reducing lipids and protecting liver [2]: strong effect on reducing lipids and protecting liver |
| 0.595 ± 0.0154 µg·h/mL | 0.139 ± 0.0106 µg/mL | 0.587 ± 0.0143 µg·h/mL | 0.11 ± 0.0068 µg/mL | 12.5 ± 4.08 h | 0.75 h | 11.7 ± 1.94 h | 0.75 h | One-Compartment Model | O=C1C[C@@H](c2ccc(O)cc2)Oc2cc(O)cc(O)c21 [Naringenin] |  |
| 0.0224 ± 0.00089 µg·h/mL | 0.0259 ± 0.00298 µg/mL | 0.0108 ± 0.00032 µg·h/mL | 0.0068 ± 0.00046 µg/mL | 8.83 ± 4.57 h | 0.5 h | 3.21 ± 0.89 h | 0.38 ± 0.13 h | Two-Compartment Model | COc1ccc(-c2cc(=O)c3c(OC)c(OC)c(OC)c(OC)c3o2)cc1 [Tangeretin] |  |
| 6.01 ± 0.0964 µg·h/mL | 0.537 ± 0.00769 µg/mL | 3.56 ± 0.3 µg·h/mL | 0.388 ± 0.0258 µg/mL | 12.2 ± 1.65 h | 1.5 h | 11.8 ± 1.81 h | 2.67 ± 0.33 h | Two-Compartment Model | C[n+]1cccc(C(=O)[O-])c1 [Trigonelline] |  |
| 3.89 ± 0.147 µg·h/mL | 0.607 ± 0.13 µg/mL | 1.03 ± 0.0238 µg·h/mL | 0.223 ± 0.00819 µg/mL | 5.88 ± 3.39 h | 1.42 ± 0.92 h | 3.21 h |  | One-Compartment Model | COc1ccc([C@@H]2CC(=O)c3c(O)cc(O)cc3O2)cc1O [Hesperetin] | Tmax ([1]; HTG: WDD 6.6 g/100 g by gavage): 0.67 ± 0.17 h; t1/2 ([1]; HTG: WDD 6.6 g/100 g by gavage): 6.24 ± 0.36 h; Tmax ([1]; HTG: WDD 6.6 g/100 g by gavage, listed as hesperetin): 0.25 h; body weight, obesity index, serum TC, TG, liver TC, TG and free fatty acid levels [3]: significantly decreased |
| 0.0549 ± 0.00207 µg·h/mL | 0.0178 ± 0.00331 µg/mL | 0.0485 ± 0.00082 µg·h/mL | 0.0162 ± 0.00235 µg/mL | 27.4 ± 4.66 h | 0.5 h | 14.6 ± 9 h |  |  | O=C(/C=C/c1ccc(O)cc1)c1ccc(O)cc1O [Isoliquiritigenin] | Tmax ([1]; HTG: WDD 6.6 g/100 g by gavage): 0.79 ± 0.21 h; Tmax ([1]; HTG: WDD 6.6 g/100 g by gavage, listed as isoliquiritigenin): 0.25 h |
| 0.128 ± 0.00567 µg·h/mL | 0.0451 ± 0.0023 µg/mL | 0.104 ± 0.00597 µg·h/mL | 0.0206 ± 0.00216 µg/mL | 10.8 ± 3.88 h | 1.5 h | 15.5 ± 7.44 h | 0.25 h | One-Compartment Model | CC1(C)[C@@H](O[C@H]2O[C@H](C(=O)O)[C@@H](O)[C@H](O)[C@H]2O[C@@H]2O[C@H](C(=O)O)[C@@H](O)[C@H](O)[C@H]2O)CC[C@]2(C)[C@H]3C(=O)C=C4[C@@H]5C[C@@](C)(C(=O)O)CC[C@]5(C)CC[C@@]4(C)[C@]3(C)CC[C@@H]12 [Glycyrrhizic acid] | HDL [6]: can increase HDL |

| SMILES | AUC(0-t) [1, 7] | Cmax [1, 7] | AUC(0-t) [1, 8] | Cmax [1, 8] | half-life [1, 9] | Tmax [1, 10] | half-life [1, 11] | Tmax [1, 12] | Model (optimal PK compartment model) [1] | other results |
| --- | --- | --- | --- | --- | --- | --- | --- | --- | --- | --- |
| O=c1c(O)c(-c2ccc(O)c(O)c2)oc2cc(O)cc(O)c12 [Quercetin] | 0.37 ± 0.0147 µg·h/mL | 0.115 ± 0.00483 µg/mL | 0.212 ± 0.00939 µg·h/mL | 0.0984 ± 0.00803 µg/mL | 31.1 ± 41.4 h |  |  | 0.75 h | Two-Compartment Model | t1/2 ([1]; HTG: WDD 6.6 g/100 g by gavage): 7.75 ± 12.99 h; Tmax ([1]; LTG: WDD 2.2 g/100 g by gavage): 1.00 ± 0.00 h; triglycerides ([4]; doses above 50 mg/day): significant reduction; effect on plasma lipids ([4]; supplementation): does not have any clinically relevant effect |
| COc1ccc([C@@H]2CC(=O)c3c(O)cc(O[C@@H]4O[C@H](CO[C@@H]5O[C@@H](C)[C@H](O)[C@@H](O)[C@H]5O)[C@@H](O)[C@H](O)[C@H]4O)cc3O2)cc1O [Hesperidin] | 0.439 ± 0.0133 µg·h/mL | 0.194 ± 0.0243 µg/mL | 0.172 ± 0.00326 µg·h/mL | 0.0346 ± 0.00322 µg/mL | 12.1 ± 5.52 h | 0.67 ± 0.42 h | 4.19 ± 0.17 h | 0.75 h | One-Compartment Model | altered redox homeostasis [5]: can reduce altered redox homeostasis |
